According to patent publication US12479847B2 (DANA-FARBER CANCER INSTITUTE, INC., priority 2019, dated 2025):

Columns and labels:
Experiment in all cases: KINOMEscan (ScanMAX) kinase profiling
Assay type in all cases: binding
panel of 468 kinases [1] = target: T1, panel of 468 kinases (Homo sapiens, UniProt Q8IU85); details: CAMK1D; 1 μM; read-out: % control
T1 construct: purchased KINOMEscan (ScanMAX) service

panel of 468 kinases [2] = target: T2, panel of 468 kinases (Homo sapiens, UniProt P42680); details: TEC; 1 μM; read-out: % control
T2 construct: purchased KINOMEscan (ScanMAX) service
T2 sequence (P42680 1-631): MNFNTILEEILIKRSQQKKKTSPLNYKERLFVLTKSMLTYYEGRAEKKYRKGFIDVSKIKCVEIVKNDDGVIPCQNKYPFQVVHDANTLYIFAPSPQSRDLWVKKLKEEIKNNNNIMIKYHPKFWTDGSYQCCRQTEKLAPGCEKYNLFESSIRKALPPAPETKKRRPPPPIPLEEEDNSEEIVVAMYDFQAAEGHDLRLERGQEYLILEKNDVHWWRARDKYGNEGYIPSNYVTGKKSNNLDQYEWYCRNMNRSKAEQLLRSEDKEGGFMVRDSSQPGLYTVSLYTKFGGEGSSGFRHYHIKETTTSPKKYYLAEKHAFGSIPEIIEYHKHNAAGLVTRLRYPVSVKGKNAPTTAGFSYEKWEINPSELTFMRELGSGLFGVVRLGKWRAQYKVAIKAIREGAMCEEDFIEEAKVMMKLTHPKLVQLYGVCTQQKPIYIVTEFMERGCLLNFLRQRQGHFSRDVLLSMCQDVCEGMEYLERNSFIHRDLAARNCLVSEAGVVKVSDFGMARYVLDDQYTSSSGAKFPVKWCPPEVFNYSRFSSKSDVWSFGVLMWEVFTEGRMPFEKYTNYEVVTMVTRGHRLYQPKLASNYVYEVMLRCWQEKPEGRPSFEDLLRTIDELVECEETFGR

panel of 468 kinases [3] = target: T3, panel of 468 kinases (Homo sapiens, UniProt P06213); details: INSR; 1 μM; read-out: % control
T3 construct: purchased KINOMEscan (ScanMAX) service
T3 sequence (P06213 28-1382): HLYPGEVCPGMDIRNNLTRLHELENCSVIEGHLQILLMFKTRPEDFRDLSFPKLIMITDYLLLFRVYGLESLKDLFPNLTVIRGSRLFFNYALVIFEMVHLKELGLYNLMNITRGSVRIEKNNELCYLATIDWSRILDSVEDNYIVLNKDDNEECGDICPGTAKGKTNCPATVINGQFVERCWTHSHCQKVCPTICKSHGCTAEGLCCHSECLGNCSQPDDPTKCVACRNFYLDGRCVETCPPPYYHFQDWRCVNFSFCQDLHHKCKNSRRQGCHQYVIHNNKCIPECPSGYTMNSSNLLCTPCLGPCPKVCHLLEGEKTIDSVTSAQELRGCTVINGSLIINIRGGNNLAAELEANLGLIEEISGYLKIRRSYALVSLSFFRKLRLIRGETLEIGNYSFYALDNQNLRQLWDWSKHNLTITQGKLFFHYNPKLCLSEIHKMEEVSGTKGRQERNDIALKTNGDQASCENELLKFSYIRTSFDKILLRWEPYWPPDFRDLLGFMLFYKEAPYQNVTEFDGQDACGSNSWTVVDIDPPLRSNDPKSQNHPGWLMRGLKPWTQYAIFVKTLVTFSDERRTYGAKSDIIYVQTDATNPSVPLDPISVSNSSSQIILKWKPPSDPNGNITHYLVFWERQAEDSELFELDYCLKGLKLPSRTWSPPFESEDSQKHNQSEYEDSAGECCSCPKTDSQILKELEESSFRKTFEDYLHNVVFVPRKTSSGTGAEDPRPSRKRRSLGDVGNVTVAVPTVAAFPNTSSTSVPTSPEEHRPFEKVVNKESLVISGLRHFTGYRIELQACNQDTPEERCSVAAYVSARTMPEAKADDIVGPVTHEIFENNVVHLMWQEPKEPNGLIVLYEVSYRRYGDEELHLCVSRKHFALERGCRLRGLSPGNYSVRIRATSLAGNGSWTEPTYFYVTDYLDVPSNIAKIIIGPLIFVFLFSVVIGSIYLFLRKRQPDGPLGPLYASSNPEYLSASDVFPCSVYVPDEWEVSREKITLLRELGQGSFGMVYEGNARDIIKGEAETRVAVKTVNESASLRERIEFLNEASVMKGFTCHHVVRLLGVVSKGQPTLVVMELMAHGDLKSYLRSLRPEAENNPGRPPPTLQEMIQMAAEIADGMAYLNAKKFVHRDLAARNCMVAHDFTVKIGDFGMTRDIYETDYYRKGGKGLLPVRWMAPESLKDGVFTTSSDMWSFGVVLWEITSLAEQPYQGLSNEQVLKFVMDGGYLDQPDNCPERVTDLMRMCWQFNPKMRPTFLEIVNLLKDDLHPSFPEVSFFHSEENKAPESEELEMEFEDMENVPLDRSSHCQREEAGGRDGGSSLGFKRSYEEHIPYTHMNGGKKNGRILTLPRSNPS

panel of 468 kinases [4] = target: T4, panel of 468 kinases (Homo sapiens, UniProt Q9UQB9); details: AURKC; 1 μM; read-out: % control
T4 construct: purchased KINOMEscan (ScanMAX) service
T4 sequence (Q9UQB9 1-309): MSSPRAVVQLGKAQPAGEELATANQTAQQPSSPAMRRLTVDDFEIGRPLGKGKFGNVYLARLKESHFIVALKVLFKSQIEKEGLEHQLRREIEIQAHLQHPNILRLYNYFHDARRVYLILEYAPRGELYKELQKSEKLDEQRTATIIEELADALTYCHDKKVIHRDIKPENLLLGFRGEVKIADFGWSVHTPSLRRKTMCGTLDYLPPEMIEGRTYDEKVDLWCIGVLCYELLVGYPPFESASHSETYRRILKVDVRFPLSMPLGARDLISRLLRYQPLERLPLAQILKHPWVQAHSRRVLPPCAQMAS

panel of 468 kinases [5] = target: T5, panel of 468 kinases (Homo sapiens, UniProt Q12866); details: MERTK; 1 μM; read-out: % control
T5 construct: purchased KINOMEscan (ScanMAX) service
T5 sequence (Q12866 21-999): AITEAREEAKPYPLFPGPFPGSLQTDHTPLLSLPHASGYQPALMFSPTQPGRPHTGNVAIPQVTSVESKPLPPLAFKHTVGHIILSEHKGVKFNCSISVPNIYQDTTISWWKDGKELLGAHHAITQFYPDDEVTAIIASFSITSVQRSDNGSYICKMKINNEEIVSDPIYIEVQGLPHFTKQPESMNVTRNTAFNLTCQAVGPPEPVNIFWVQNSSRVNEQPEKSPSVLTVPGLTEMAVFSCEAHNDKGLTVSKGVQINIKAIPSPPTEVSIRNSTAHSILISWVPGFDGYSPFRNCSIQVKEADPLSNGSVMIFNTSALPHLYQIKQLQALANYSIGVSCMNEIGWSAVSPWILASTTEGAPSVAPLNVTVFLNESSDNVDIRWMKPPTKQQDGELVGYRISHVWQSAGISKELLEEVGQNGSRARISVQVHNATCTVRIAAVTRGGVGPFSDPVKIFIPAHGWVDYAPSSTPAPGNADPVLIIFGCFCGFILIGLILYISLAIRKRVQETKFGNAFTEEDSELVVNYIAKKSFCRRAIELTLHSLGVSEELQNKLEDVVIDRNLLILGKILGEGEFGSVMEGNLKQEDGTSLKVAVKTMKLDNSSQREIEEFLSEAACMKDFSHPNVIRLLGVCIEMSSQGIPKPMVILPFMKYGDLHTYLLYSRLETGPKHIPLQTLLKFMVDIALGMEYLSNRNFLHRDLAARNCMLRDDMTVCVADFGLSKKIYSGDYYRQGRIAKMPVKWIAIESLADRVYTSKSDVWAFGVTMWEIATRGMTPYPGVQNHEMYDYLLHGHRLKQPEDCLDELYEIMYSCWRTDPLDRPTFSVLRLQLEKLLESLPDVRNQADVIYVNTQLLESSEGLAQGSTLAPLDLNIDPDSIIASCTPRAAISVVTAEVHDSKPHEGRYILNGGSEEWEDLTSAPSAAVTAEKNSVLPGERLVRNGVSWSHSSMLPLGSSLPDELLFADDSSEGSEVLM

T1 sequence (Q8IU85 whole entry): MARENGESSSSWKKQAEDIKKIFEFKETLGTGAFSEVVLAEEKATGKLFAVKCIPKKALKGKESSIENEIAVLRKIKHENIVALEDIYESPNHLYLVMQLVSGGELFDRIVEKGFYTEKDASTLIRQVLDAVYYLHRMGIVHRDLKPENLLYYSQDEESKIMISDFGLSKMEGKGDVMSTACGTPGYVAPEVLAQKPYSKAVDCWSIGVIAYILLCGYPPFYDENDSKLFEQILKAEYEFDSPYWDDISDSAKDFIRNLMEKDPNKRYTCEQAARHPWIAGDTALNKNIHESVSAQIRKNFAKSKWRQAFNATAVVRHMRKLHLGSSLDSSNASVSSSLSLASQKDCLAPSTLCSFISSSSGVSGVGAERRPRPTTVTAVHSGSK

SMILES	remaining binding at 1 µM (panel of 468 kinases [1]) [%]	remaining binding at 1 µM (panel of 468 kinases [2]) [%]	remaining binding at 1 µM (panel of 468 kinases [3]) [%]	remaining binding at 1 µM (panel of 468 kinases [4]) [%]	remaining binding at 1 µM (panel of 468 kinases [5]) [%]
CNc1nc(Nc2ccc(S(=O)(=O)N3CCC(N4CCOCC4)CC3)cc2OC)nc2[nH]cc(Cl)c12 [Compound 12, 5-chloro-N2-(2-methoxy-4-((4-morpholinopiperidin-1-yl)sulfonyl)phenyl)-N4-methyl-7H-pyrrolo[2,3-d]pyrimidine-2,4-diamine]	96	93	50	100	96
CNc1nc(Nc2ccc(P3(=O)CCN(C4CCOCC4)CC3)cc2OC)nc2[nH]cc(Cl)c12 [Compound 77, 4-(4-((5-chloro-4-(methylamino)-7H-pyrrolo[2,3-d]pyrimidin-2-yl)amino)-3-methoxyphenyl)-1-(tetrahydro-2H-pyran-4-yl)-1,4-azaphosphinane 4-oxide]	39	97	18	100	98
CNc1nc(Nc2ccc(C(=O)N3CCC(N4CCOCC4)CC3)c3c2OCO3)nc2[nH]cc(Cl)c12 [Compound 75, (7-((5-chloro-4-(methylamino)-7H-pyrrolo[2,3-d]pyrimidin-2-yl)amino)benzo[d][1,3]dioxol-4-yl)(4-morpholinopiperidin-1-yl)methanone]	47	100	24	56	85
